Where a SMILES comes first, the peptide text is derived from it. Bridges are numbered along the chain shown (N, C = ends). [ ]: non-standard residue; d: D form. The star is where a group is joined. X1 = NC[C@@H](CC(=O)*)c1cccc(Cl)c1; Dab = NCC[C@H](N)C(=O)O; Dap = NC[C@H](N)C(=O)O
Key:
[1] = test system: K. pneumoniae ATCC 10031 (SEN) and K. pneumoniae ATCC 700603 (MDR); assay: Adaptive laboratory evolution (ALE), relative MIC of evolved lines; assay type: cell-based, Klebsiella pneumoniae
Method in brief: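 Ten parallel populations per antibiotic–ancestor pair were evolved in MHB at 37 °C, starting near 50% growth-inhibiting drug. Every 72 h they were passaged into 0.5–2.5× increasing concentrations, keeping the highest-drug well with OD600 > 0.2.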

E. coli BW25113-ΔacrB = assay: AcrAB-TolC efflux deficiency screen, relative MIC; assay type: cell-based, Escherichia coli; settings: ΔacrB vs wild-type
Method in brief: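 Broth microdilution in MHB (supplemented MS for SCH79797), ten-step antibiotic dilutions, 5 × 10^5 cells/mL, 18 h at 37 °C with shaking; MIC is lowest concentration giving background-corrected OD600 < 0.05. Relative MIC as log2 ratio: ΔacrB vs wild-type; pUCacrAB vs empty pUC118 (plasmid strains under 100 µg/mL ampicillin). Mean of 3 biological replicates.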

[2] = KP-MDR (Klebsiella pneumoniae ATCC 700603), evolved line 2
[3] = KP-MDR (Klebsiella pneumoniae ATCC 700603), evolved line 4
[4] = KP-MDR (Klebsiella pneumoniae ATCC 700603), evolved line 6
[5] = KP-MDR (Klebsiella pneumoniae ATCC 700603), evolved line 8
[6] = KP-MDR (Klebsiella pneumoniae ATCC 700603), evolved line 10
[7] = KP-SEN (Klebsiella pneumoniae ATCC 10031), evolved line 1
[8] = KP-SEN (Klebsiella pneumoniae ATCC 10031), evolved line 3
[9] = KP-SEN (Klebsiella pneumoniae ATCC 10031), evolved line 4
[10] = KP-SEN (Klebsiella pneumoniae ATCC 10031), evolved line 6
[11] = KP-SEN (Klebsiella pneumoniae ATCC 10031), evolved line 10

SMILES: CC(C)C[C@@H]1NC(=O)[C@@H](Cc2ccccc2)NC(=O)[C@H](CCN)NC(=O)[C@@H](NC(=O)[C@H](CN)NC(=O)[C@@H](NC(=O)C[C@H](CN)c2cccc(Cl)c2)[C@@H](C)O)CCNC(=O)[C@H]([C@@H](C)O)NC(=O)[C@H](CCN)NC(=O)[C@H](CCN)NC1=O [SPR206] (X1-T[Dap][Dab][Dab][dF]L[Dab][Dab]T; lactam 3-C (inferred); N-terminus assumed)
- Relative MIC ([1]; ALE, K. pneumoniae ATCC 700603 (KP-MDR), evolved line 7): 512
- Relative MIC ([1]; ALE, K. pneumoniae ATCC 700603 (KP-MDR), evolved line 8): 1024
- Relative MIC ([1]; ALE, K. pneumoniae ATCC 700603 (KP-MDR), evolved line 9): 1024
- Relative MIC ([1]; ALE, K. pneumoniae ATCC 700603 (KP-MDR), evolved line 10): 512
- Relative MIC ([1]; ALE, Klebsiella pneumoniae ATCC 10031 (KP-SEN), evolved line 1): 2048
- Relative MIC ([1]; ALE, Klebsiella pneumoniae ATCC 10031 (KP-SEN), evolved line 2): 2
- Relative MIC ([1]; ALE, Klebsiella pneumoniae ATCC 10031 (KP-SEN), evolved line 3): 2048
- Relative MIC ([1]; ALE, Klebsiella pneumoniae ATCC 10031 (KP-SEN), evolved line 4): 2048
- Relative MIC ([1]; ALE, Klebsiella pneumoniae ATCC 10031 (KP-SEN), evolved line 6): 2048
- Relative MIC ([1]; ALE, Klebsiella pneumoniae ATCC 10031 (KP-SEN), evolved line 7): 2
- Relative MIC ([1]; ALE, Klebsiella pneumoniae ATCC 10031 (KP-SEN), evolved line 8): 2
- Relative MIC ([1]; ALE, Klebsiella pneumoniae ATCC 10031 (KP-SEN), evolved line 10): 2048
- Relative MIC ([1]; ALE, Klebsiella pneumoniae ATCC 700603 (KP-MDR), evolved line 1): 256
- Relative MIC ([1]; ALE, Klebsiella pneumoniae ATCC 700603 (KP-MDR), evolved line 2): 1024
- Relative MIC ([1]; ALE, Klebsiella pneumoniae ATCC 700603 (KP-MDR), evolved line 3): 512
- Relative MIC ([1]; ALE, Klebsiella pneumoniae ATCC 700603 (KP-MDR), evolved line 4): 256
- Relative MIC ([1]; ALE, Klebsiella pneumoniae ATCC 700603 (KP-MDR), evolved line 5): 256
- Relative MIC ([1]; ALE, Klebsiella pneumoniae ATCC 700603 (KP-MDR), evolved line 6): 512
- MIC of evolved line ([1]; KP-MDR (K. pneumoniae ATCC 700603), evolved line 1 of the given antibiotic): 128 µg/mL
- Relative MIC ([1]; KP-MDR (K. pneumoniae ATCC 700603), evolved line 1 vs ancestor): 256
- MIC of evolved line ([1]; KP-MDR (K. pneumoniae ATCC 700603), evolved line 2 of the given antibiotic): 512 µg/mL
- Relative MIC ([1]; KP-MDR (K. pneumoniae ATCC 700603), evolved line 2 vs ancestor): 1024
- MIC of evolved line ([1]; KP-MDR (K. pneumoniae ATCC 700603), evolved line 3 of the given antibiotic): 256 µg/mL
- Relative MIC ([1]; KP-MDR (K. pneumoniae ATCC 700603), evolved line 3 vs ancestor): 512
- MIC of evolved line ([1]; KP-MDR (K. pneumoniae ATCC 700603), evolved line 4 of the given antibiotic): 128 µg/mL
- Relative MIC ([1]; KP-MDR (K. pneumoniae ATCC 700603), evolved line 4 vs ancestor): 256
- MIC of evolved line ([1]; KP-MDR (K. pneumoniae ATCC 700603), evolved line 5 of the given antibiotic): 128 µg/mL
- Relative MIC ([1]; KP-MDR (K. pneumoniae ATCC 700603), evolved line 5 vs ancestor): 256
- MIC of evolved line ([1]; KP-MDR (K. pneumoniae ATCC 700603), evolved line 6 of the given antibiotic): 256 µg/mL
- Relative MIC ([1]; KP-MDR (K. pneumoniae ATCC 700603), evolved line 6 vs ancestor): 512
- MIC of evolved line ([1]; KP-MDR (K. pneumoniae ATCC 700603), evolved line 7 of the given antibiotic): 256 µg/mL
- Relative MIC ([1]; KP-MDR (K. pneumoniae ATCC 700603), evolved line 7 vs ancestor): 512
- MIC of evolved line ([1]; KP-MDR (K. pneumoniae ATCC 700603), evolved line 8 of the given antibiotic): 512 µg/mL
- Relative MIC ([1]; KP-MDR (K. pneumoniae ATCC 700603), evolved line 8 vs ancestor): 1024
- MIC of evolved line ([1]; KP-MDR (K. pneumoniae ATCC 700603), evolved line 9 of the given antibiotic): 512 µg/mL
- Relative MIC ([1]; KP-MDR (K. pneumoniae ATCC 700603), evolved line 9 vs ancestor): 1024
- MIC of evolved line ([1]; KP-MDR (K. pneumoniae ATCC 700603), evolved line 10 of the given antibiotic): 256 µg/mL
- Relative MIC ([1]; KP-MDR (K. pneumoniae ATCC 700603), evolved line 10 vs ancestor): 512
- Relative MIC ([1]; KP-MDR (Klebsiella pneumoniae ATCC 700603), evolved line 1): 256
- Relative MIC [1, 2]: 1024
- Relative MIC (log10) [1, 2]: 3.0103 log10
- Relative MIC ([1]; KP-MDR (Klebsiella pneumoniae ATCC 700603), evolved line 3): 512
- Relative MIC [1, 3]: 256
- Relative MIC (log10) [1, 3]: 2.408 log10
- Relative MIC ([1]; KP-MDR (Klebsiella pneumoniae ATCC 700603), evolved line 5): 256
- Relative MIC [1, 4]: 512
- Relative MIC (log10) [1, 4]: 2.709 log10
- Relative MIC ([1]; KP-MDR (Klebsiella pneumoniae ATCC 700603), evolved line 7): 512
- Relative MIC [1, 5]: 1024
- Relative MIC (log10) [1, 5]: 3.0103 log10
- Relative MIC ([1]; KP-MDR (Klebsiella pneumoniae ATCC 700603), evolved line 9): 1024
- Relative MIC [1, 6]: 512
- Relative MIC (log10) [1, 6]: 2.709 log10
- MIC of evolved line ([1]; KP-SEN (K. pneumoniae ATCC 10031), evolved line 1 of the given antibiotic): 1020 µg/mL
- Relative MIC ([1]; KP-SEN (K. pneumoniae ATCC 10031), evolved line 1 vs ancestor): 2048
- MIC of evolved line ([1]; KP-SEN (K. pneumoniae ATCC 10031), evolved line 2 of the given antibiotic): 1 µg/mL
- Relative MIC ([1]; KP-SEN (K. pneumoniae ATCC 10031), evolved line 2 vs ancestor): 2
- MIC of evolved line ([1]; KP-SEN (K. pneumoniae ATCC 10031), evolved line 3 of the given antibiotic): 1020 µg/mL
- Relative MIC ([1]; KP-SEN (K. pneumoniae ATCC 10031), evolved line 3 vs ancestor): 2048
- MIC of evolved line ([1]; KP-SEN (K. pneumoniae ATCC 10031), evolved line 4 of the given antibiotic): 1020 µg/mL
- Relative MIC ([1]; KP-SEN (K. pneumoniae ATCC 10031), evolved line 4 vs ancestor): 2048
- MIC of evolved line ([1]; KP-SEN (K. pneumoniae ATCC 10031), evolved line 6 of the given antibiotic): 1020 µg/mL
- Relative MIC ([1]; KP-SEN (K. pneumoniae ATCC 10031), evolved line 6 vs ancestor): 2048
- MIC of evolved line ([1]; KP-SEN (K. pneumoniae ATCC 10031), evolved line 7 of the given antibiotic): 1 µg/mL
- Relative MIC ([1]; KP-SEN (K. pneumoniae ATCC 10031), evolved line 7 vs ancestor): 2
- MIC of evolved line ([1]; KP-SEN (K. pneumoniae ATCC 10031), evolved line 8 of the given antibiotic): 1 µg/mL
- Relative MIC ([1]; KP-SEN (K. pneumoniae ATCC 10031), evolved line 8 vs ancestor): 2
- MIC of evolved line ([1]; KP-SEN (K. pneumoniae ATCC 10031), evolved line 10 of the given antibiotic): 1020 µg/mL
- Relative MIC ([1]; KP-SEN (K. pneumoniae ATCC 10031), evolved line 10 vs ancestor): 2048
- Relative MIC [1, 7]: 2048
- Relative MIC (log10) [1, 7]: 3.311 log10
- Relative MIC ([1]; KP-SEN (Klebsiella pneumoniae ATCC 10031), evolved line 2): 2
- Relative MIC [1, 8]: 2048
- Relative MIC (log10) [1, 8]: 3.311 log10
- Relative MIC [1, 9]: 2048
- Relative MIC (log10) [1, 9]: 3.311 log10
- Relative MIC [1, 10]: 2048
- Relative MIC (log10) [1, 10]: 3.311 log10
- Relative MIC ([1]; KP-SEN (Klebsiella pneumoniae ATCC 10031), evolved line 8): 2
- Relative MIC [1, 11]: 2048
- Relative MIC (log10) [1, 11]: 3.311 log10
- Relative MIC ([1]; KP-SEN, Klebsiella pneumoniae ATCC 10031, evolved line 7): 2
- Relative MIC ([1]; Klebsiella pneumoniae ATCC 10031 (KP-SEN), evolved line 1): 2048
- Relative MIC ([1]; Klebsiella pneumoniae ATCC 10031 (KP-SEN), evolved line 2): 2
- Relative MIC ([1]; Klebsiella pneumoniae ATCC 10031 (KP-SEN), evolved line 3): 2048
- Relative MIC ([1]; Klebsiella pneumoniae ATCC 10031 (KP-SEN), evolved line 4): 2048
- Relative MIC ([1]; Klebsiella pneumoniae ATCC 10031 (KP-SEN), evolved line 6): 2048
- Relative MIC ([1]; Klebsiella pneumoniae ATCC 10031 (KP-SEN), evolved line 7): 2
- Relative MIC ([1]; Klebsiella pneumoniae ATCC 10031 (KP-SEN), evolved line 8): 2
- Relative MIC ([1]; Klebsiella pneumoniae ATCC 10031 (KP-SEN), evolved line 10): 2048
- Relative MIC ([1]; Klebsiella pneumoniae ATCC 700603 (KP-MDR), evolved line 1): 256
- Relative MIC ([1]; Klebsiella pneumoniae ATCC 700603 (KP-MDR), evolved line 2): 1024
- Relative MIC ([1]; Klebsiella pneumoniae ATCC 700603 (KP-MDR), evolved line 3): 512
- Relative MIC ([1]; Klebsiella pneumoniae ATCC 700603 (KP-MDR), evolved line 4): 256
- Relative MIC ([1]; Klebsiella pneumoniae ATCC 700603 (KP-MDR), evolved line 5): 256
- Relative MIC ([1]; Klebsiella pneumoniae ATCC 700603 (KP-MDR), evolved line 6): 512
- Relative MIC ([1]; Klebsiella pneumoniae ATCC 700603 (KP-MDR), evolved line 7): 512
- Relative MIC ([1]; Klebsiella pneumoniae ATCC 700603 (KP-MDR), evolved line 8): 1024
- Relative MIC ([1]; Klebsiella pneumoniae ATCC 700603 (KP-MDR), evolved line 9): 1024
- Relative MIC ([1]; Klebsiella pneumoniae ATCC 700603 (KP-MDR), evolved line 10): 512
- Relative MIC (log2) (E. coli BW25113-ΔacrB; replicate 1): 0
- Relative MIC (log2) (E. coli BW25113-ΔacrB; replicate 2): 0
- Relative MIC (log2) (E. coli BW25113-ΔacrB; replicate 3): 0
